Experimental data published in patent publication US20070021351A1, “Liver/plasma concentration ratio for dosing hepatitis C virus protease inhibitor” (Schering Corporation, priority 2005, published 2007).

Experiments:
[1] = system: HCV polyprotein processing; assay: Kinetic studies following polyprotein processing intermediates; type: cell-based
[2] = Liver versus plasma concentration in monkeys (non-GLP assay); type: in vivo; conditions: about 24 hours after dosing
Protocol: For the purpose of the present invention and the data presented herein, the liver to plasma ratio is calculated by determining the IC90 of a compound and inferring the concentration of the compound in the liver based on the concentration of the compound which causes a 90% decrease in viral load. […] It is known that concentrations of the compounds of Formulae I-XXVI in the liver of rats are about thirty to fifty times greater than plasma concentrations, whereas concentrations in the brain are below detection. In monkeys, concentration of the compound of Formula Ia determined by non-GLP assay of plasma sample taken about 24 hours after dosing of the compound was about five times greater in the liver than in plasma.

[3] = Example 2: food-effect crossover study, 600 mg single dose, healthy adult subjects; type: in vivo, human
Protocol: This was a randomized, open-label, single-dose, two-treatment (fed or fasted), two-period, two-sequence crossover study of the effect of food on the bioavailability of compound of Formula Ia in 23 healthy adult male and female subjects. The primary pharmacokinetic parameters were AUC(I) and Cmax for compound of Formula Ia. The study included a 7-day wash-out period between treatment periods.
Subjects were confined at the study site at least 14 hours prior to each treatment (Day-1). On the morning of Day 1, following a 10-hour overnight fast, subjects were randomized to receive in a particular order Treatment A and Treatment B: • Treatment A: compound of Formula Ia 600 mg (6×100 mg capsules) PO following an overnight fast. • Treatment B: compound of Formula Ia 600 mg (6×100 mg capsules) PO within 20 minutes following the completion of a standard high-fat breakfast. There was a 7-day wash-out period between receiving treatments.
Subjects receiving Treatment A received a formulation of compound of Formula Ia comprised of compound of Formula Ia and a pharmaceutically acceptable carrier, such as microcrystalline cellulose, while continuing to fast, while subjects randomized to Treatment B consumed a standardized high-fat meal prior to compound administration (within 20 minutes prior to the compound administration). The capsules along with approximately 240 mL of water were swallowed whole, not chewed or crushed. […] Water was permitted as desired except for 1 hour before and after compound administration. A washout period of at least 7 days separated the two treatment periods. Upon return to the clinic, subjects underwent the same procedures as the first period and continued the randomization sequence (subjects who received compound of Formula Ia fasted in Period 1 and then received compound of Formula Ia under fed conditions in Period 2, and vice versa).
Blood samples (7 mL each) for the determination of compound of Formula Ia levels were drawn immediately prior to dosing (0 hour), and at 0.5, 1, 1.5, 2, 2.5, 3, 4, 5, 6, 8, 12, 24, 36, and 48 hours after dosing. The blood samples were collected into tubes containing EDTA. The samples were centrifuged at 1500 g for 10 minutes to obtain plasma and the plasma samples were frozen at −20° C. and maintained in the frozen state until assayed.
Plasma concentrations of compound of Formula Ia were determined using a validated liquid chromatography tandem mass spectrometry (LC-MS/MS) method. The assay lower limit of quantitation (LLOQ) was 0.50 ng/mL and the method was validated over the concentration range of 0.50 to 1000 ng/mL.
The mean and percent coefficient of variation (% CV) were calculated for plasma concentrations of compound of Formula Ia at each time point. Concentration values less than the assay LLOQ were reported as, and set to zero in the tables and calculations. The plasma concentration-time data for compound of Formula Ia were subjected to pharmacokinetic analysis by noncompartmental methods using WinNonlin software. Nominal sampling times were used for pharmacokinetic analysis, since none of the pharmacokinetic sampling time deviations were >10% of the nominal times. For each subject, the following pharmacokinetic parameters were determined for compound of Formula Ia: maximum plasma concentration (Cmax), time of maximum observed plasma concentration (Tmax), the final quantifiable sampling time (tf), area under the plasma concentration-time curve from time 0 to tf (AUC[tf]), AUC(I) (AUC[tf]+C[tf]estimated/K) and Vd/F. The K and C(tf)estimated are defined as terminal elimination rate constant and estimated concentration at final quantifiable sample, respectively. Terminal phase half-life (t½=In2/K) and apparent clearance (CL/F=Dose/AUC[I]) were also determined. Cmax, Tmax and tf were the observed values. […]

Tissue distribution = type: in vivo; conditions: liver as well as extra-hepatic sites

**Q.** Which “time until effects become evident” value [1] does the source give for `CC(C)(C)NC(=O)N[C@H](C(=O)N1C[C@H]2[C@@H]([C@H]1C(=O)NC(CC1CCC1)C(=O)C(N)=O)C2(C)C)C(C)(C)C` (mixture of isomers) [Formula Ia, (1R,5S)-N-[3-Amino-1-(Cyclobutylmethyl)-2,3-Dioxopropyl]-3-[2(S)-[[[(1,1-Dimethylethyl)Amino]Carbonyl]Amino]-3,3-Dimethyl-1-Oxobutyl]-6,6-Dimethyl-3-Azabicyclo[3.1.0]Hexan-2(S)-Carboxamide] here?
**A.** one

**Q.** What about the “concentration in liver relative to plasma” value [2] of the same compound?
**A.** about five

**Q.** What about the “apparent mean Vd/F, fed versus fasted (times lower)” value ([3]; 600 mg oral) of the same compound?
**A.** about five

**Q.** What about the safety profile ([3]; 600 mg oral dose, fed and fasted states) of the same compound?
**A.** low frequency of treatment emergent and treatment related AEs

**Q.** And the “delay of median Tmax, fed versus fasted” value ([3]; 600 mg single oral dose)?
**A.** approximately three

**Q.** And the “median concentration at 8 hours, fed relative to fasted” value ([3]; 600 mg single oral dose)?
**A.** more than 4 fold

**Q.** And the “median concentration at 12 hours, fed relative to fasted” value ([3]; 600 mg single oral dose)?
**A.** 2 fold

**Q.** And the “AUC(I)” value ([3]; 600 mg single oral dose, fed, mean, n=19)?
**A.** 3697 ng·h/mL

**Q.** What about the “AUC(l) ratio estimate, fed to fasted” value ([3]; 600 mg, female, n=10) of the same compound?
**A.** 225%

**Q.** What about the “AUC(tf) ratio estimate, fed to fasted” value ([3]; 600 mg, female, n=10) of the same compound?
**A.** 229%

**Q.** What about the “Cmax ratio estimate, fed to fasted” value ([3]; 600 mg, female, n=10) of the same compound?
**A.** 170%

**Q.** And the “increase of relative (oral) bioavailability (AUC) in the fed state” value ([3]; 600 mg, high-fat meal relative to fasted)?
**A.** over 100%

**Q.** And the “AUC(l) ratio estimate, fed to fasted” value ([3]; 600 mg, male, n=10)?
**A.** 202%

**Q.** And the “AUC(tf) ratio estimate, fed to fasted” value ([3]; 600 mg, male, n=10)?
**A.** 205%

**Q.** And the “Cmax ratio estimate, fed to fasted” value ([3]; 600 mg, male, n=10)?
**A.** 155%

**Q.** What about the “AUC(l) ratio estimate, fed to fasted” value ([3]; 600 mg, n=20) of the same compound?
**A.** 214%

**Q.** What about the “AUC(tf) ratio estimate, fed to fasted” value ([3]; 600 mg, n=20) of the same compound?
**A.** 217%

**Q.** And the “Cmax ratio estimate, fed to fasted” value ([3]; 600 mg, n=20)?
**A.** 162%

**Q.** What about the “absorption lag time in the fed state vs the fasted state” value ([3]; in 12 of the 20 subjects who completed both periods) of the same compound?
**A.** > 0.5 h

**Q.** What about the tissue distribution (Tissue distribution) of the same compound?
**A.** distributes widely throughout the tissues of the body
